The source of these data is US20060148059A1, “Salt tolerant l-myo-inositol 1-phosphate synthase and the process of obtaining the same” (priority 2002, published 2006).

The Km is the concentration of substrate that gives half-maximal velocity.

Like-named read-outs stand apart in the source and are kept apart here.

The subject of series [1] is Oryza sativa L-myo-inositol 1-phosphate synthase (RINO), native. Particulars: data from RayChaudhury et al. (1997); cited from earlier work.
Series [2] in a line: pH and temperature optimum of enzyme activity. The class given is biochemical. As for the experimental part:
The purified bacterially expressed RINO1 and PINO1 proteins were characterized for their biochemical properties (Table-1). […] For both the cases optimum enzyme activity was at 37° C. whereas optimum pH for Porteresia recombinant synthase (PINO1) was 8.0 and the same for Oryza recombinant synthase (RINO1) was 7.5.

Series [3] in a line: Tryptophan fluorescence in increasing NaCl concentrations. The class given is physicochemical. Particulars: recombinant preparations. The procedure: FIG. 4: Tryptophan fluorescence of purified RINO1 (A) and PINO1 (B) proteins in increasing NaCl concentrations; tracing 1,2,3 & 4 correspond to 0, 100 mM, […] and 400 mM NaCl in the system.
Tryptophan Fluorescence spectra of the recombinant preparations of the inositol synthase(s) from Oryza sativa (RINO1) and Porteresia coarctata (PINO1) are shown in Panel A and B respectively in FIG. 4. […] The emission maxima in both the cases remain close to 336 nm.

The conditions of series [4]: not told.
Description: FIG. 5: Gel filtration pattern on Superose-12 of RINO1 and PINO1 proteins in absence and presence of 400 mM NaCl. (A) RINO1 without NaCl; (B) RINO1 with NaCl; (C) PINO1 without NaCl; (D) PINO1 with NaCl. Insets depict SDS-PAGE and immuno dot blots of indicated fractions.
Series [5] is described as follows: Inositol synthase activity in presence of increasing NaCl concentration. The class given is biochemical. Particulars: NaCl in vitro. The source says:
With respect to salt-sensitivity, RINO1 and PINO1 proteins differ a great deal.
FIG. 3: Inositol synthase activity in presence of increasing NaCl concentration for purified native (A) and recombinant (B) enzymes.

For series [6] the following is noted: enzyme activity; data from RayChaudhury et al. (1997); cited from earlier work.

`O=P(O)(O)OC[C@H]1OC(O)[C@H](O)[C@@H](O)[C@@H]1O` (stereo partly shown) [G6P, Glucose 6 phosphate]: in series [1], the Km was 1970 µM and the Vmax is listed as 0.07 μmol^−m.
As for `NC(=O)c1ccc[n+]([C@@H]2O[C@H](COP(=O)([O-])OP(=O)(O)OC[C@H]3O[C@@H](n4cnc5c(N)ncnc54)[C@H](O)[C@@H]3O)[C@@H](O)[C@H]2O)c1` [NAD], in series [1], the Km was 140 µM and the Vmax is 0.09 μmol^−m.
As for “L-myo-inositol 1-phosphate synthase [PINO Native]”, in series [2], the “Temperature Optimum” value stood at 35 °C and the pH optimum turned out to be 7.5.
With “L-myo-inositol 1-phosphate synthase [PINO Recombinant]”, in series [2], the “Temperature Optimum” value came to 37 °C and the pH optimum is recorded as 8.0. Moreover, in series [2] (listed as PINO1), the “Temperature Optimum” value was 37 °C and the pH optimum is 8.0. The “Tryptophan fluorescence intensity in presence of added salt” value in series [3] (listed as PINO1) was “rather insensitive”. The “Gel-permeation elution pattern on addition of salt” value in series [4] was “elutes at the same place”.
Turning to “L-myo-inositol 1-phosphate synthase [RINO Native]”, in series [5], the “salt-sensitivity of inositol synthase activity” value was “sensitive to NaCl”. In series [6], the “Temperature Optimum” value is 35 °C and the pH optimum was 8.2.
With “L-myo-inositol 1-phosphate synthase [RINO Recombinant]”, the “Temperature Optimum” value in series [2] and in series [2] (listed as RINO1) was 37 °C each time. In addition, the pH optimum in series [2] and in series [2] (listed as RINO1) was 7.5 throughout. In series [5], the “salt-sensitivity of inositol synthase activity” value is on record as “sensitive to NaCl”. Further, the “Tryptophan fluorescence intensity in presence of added salt” value in series [3] (listed as RINO1) is “quenched significantly”. The “Gel-permeation elution pattern on addition of salt” value in series [4] is “substantial reduction in the original peak and concurrent appearance of a high molecular weight fraction”.
